Patent US4427689A, “Clavulanic acid 9-deoxy-9-thia derivatives their preparation and use” (Beecham Group Limited, priority 1978, dated 1984)
Like-named read-outs stand apart in the source and are kept apart here.

Experiments:
[1] = test system: Staph. Russell; assay: MIC of ampicillin alone or in presence of compound (synergistic activity, Demonstration 1), Staph. Russell; format: cell-based; conditions: Staphylococcus aureus
Procedure: (§1) The minimum inhibitory concentration (MIC) of ampicillin alone or in the presence of certain compounds of the invention was determined for several strains of bacteria.

[2] = test system: Proteus C889; assay: MIC of ampicillin alone or in presence of compound (synergistic activity, Demonstration 1), Proteus C889; format: cell-based
Procedure: as §1

[3] = test system: E.coli JT39; assay: MIC of ampicillin alone or in presence of compound (synergistic activity, Demonstration 1), E.coli JT39; format: cell-based; conditions: Escherichia coli
Procedure: as §1

[4] = test system: Staph. aureus Russell; assay: MIC of ampicillin alone or in presence of compound (synergistic activity, Demonstration 2), Staph. aureus Russell; format: cell-based; conditions: Staphylococcus aureus
Procedure: (§2) The MIC of ampicillin alone or in the presence of certain compounds of the invention was determined for certain Gram positive and Gram negative bacteria.

[5] = test system: Kleb. aerogenes E70; assay: MIC of ampicillin alone or in presence of compound (synergistic activity, Demonstration 2), Kleb. aerogenes E70; format: cell-based; conditions: Klebsiella aerogenes
Procedure: as §2

[6] = test system: E. coli JT39; assay: MIC of ampicillin alone or in presence of compound (synergistic activity, Demonstration 2), E. coli JT39; format: cell-based; conditions: Escherichia coli
Procedure: as §2

[7] = test system: Klebsiella E70; assay: MIC of ampicillin alone or in presence of compound (synergistic activity, Demonstration 1), Klebsiella E70; format: cell-based, Kleb. aerogenes; conditions: E70, compound alone
Procedure: as §1

[8] = test system: E.coli E96; assay: In-vivo effect, CD50 in mice infected intraperitoneally with E.coli E96; conditions: Escherichia coli, E96, sc, subcutaneous at 1 and 5 hours post infection, no synergist, read-out: CD50 of amoxycillin alone
Procedure: The CD50 in mice infected intraperitoneally with E.coli E96 was determined. Amoxycillin and the synergists were dosed subcutaneously at 1 and 5 hours post infection. The synergists were used at 2 mg/kg.

[9] = compound conc. 0 μg/ml, read-out: MIC Ampicillin (alone)
[10] = ampicillin alone, read-out: MIC of ampicillin alone
[11] = compound alone, read-out: MIC, compound alone
[12] = compound alone, E. coli JT39, read-out: MIC, compound alone

| Compound | MIC [4, 11] | MIC [5, 11] | MIC [6, 11] | other results |
| --- | --- | --- | --- | --- |
| CC1(C)S[C@@H]2[C@H](NC(=O)[C@H](N)c3ccccc3)C(=O)N2[C@H]1C(=O)O [Ampicillin, ampicillin, reference compound] |  |  |  | MIC [1, 9]: 500 µg/mL; MIC Ampicillin (alone) ([2]; compound conc. 0 μg/ml): 1000 µg/mL; MIC [2, 9]: > 2000 µg/mL; MIC ([3]; compound conc. 0 μg/ml, E.coli JT39, read-out: MIC Ampicillin (alone)): 2000 µg/mL; MIC [4, 10]: 125 to 500 µg/mL; MIC [5, 10]: 500 to 2000 µg/mL; MIC [6, 10]: ≥ 2000 µg/mL |
| O=C(NCSC/C=C1\O[C@@H]2CC(=O)N2[C@H]1C(=O)O)c1ccccc1 [Example 6, Sodium 9-deoxy-9-thio (N-benzoylaminomethyl) clavulanate] | 16 µg/mL | 500 µg/mL |  | MIC [1, 11]: 16 µg/mL; MIC [7]: 500 µg/mL; MIC [2, 11]: 125 µg/mL; MIC [3, 12]: 250 µg/mL |
| O=C(O)[C@H]1/C(=C/CSCN2CCCC2=O)O[C@@H]2CC(=O)N21 [Example 8, Sodium 9-(2-oxopyrrolidin-1-ylmethylthio)-9-deoxyclavulate] | 62.5 µg/mL | 250 µg/mL | 250 µg/mL |  |
| O=C1CC(SC/C=C2\O[C@@H]3CC(=O)N3[C@H]2C(=O)O)N1 (some centres unmarked) [Example 2, Sodium 9-deoxy-9-thio-(azetidin-2'-on-4'-yl) clavulanate] | 31.2 µg/mL | 16 µg/mL |  | MIC [1, 11]: 31.2 µg/mL; MIC [7]: 15 µg/mL; MIC [2, 11]: 15 µg/mL; MIC [3, 12]: 31.2 µg/mL |
| CC(=O)NCS(=O)(=O)C/C=C1\O[C@@H]2CC(=O)N2[C@H]1C(=O)O [Example 22, Sodium 9-(acetamidomethylsuphonyl)-9-deoxyclavulanate] | 62.5 µg/mL | 62.5 µg/mL | 31.2 µg/mL |  |
| O=C(O)[C@H]1/C(=C/CS(=O)(=O)CN2CCCC2=O)O[C@@H]2CC(=O)N21 [Example 10, Sodium 9-(2-oxopyrrolidin-1-ylmethylsulphonyl)-9-deoxyclavulanate] | 31.2 µg/mL | 62.5 µg/mL | 62.5 µg/mL |  |
| CC(NC=O)SC/C=C1\O[C@@H]2CC(=O)N2[C@H]1C(=O)O (some centres unmarked) [Example 13, Sodium 9-(1-formamidoethylthio)-9-deoxyclavulanate] | 16 µg/mL | 62.5 µg/mL | 125 µg/mL |  |
| CC(=O)NC[S+]([O-])C/C=C1\O[C@@H]2CC(=O)N2[C@H]1C(=O)O (some centres unmarked) [Example 21, Sodium 9-(acetamidomethylsulphinyl)-9-deoxyclavulanate] | 125 µg/mL | 125 µg/mL | 62.5 µg/mL |  |
| CC(=O)NCSC/C=C1\O[C@@H]2CC(=O)N2[C@H]1C(=O)O [Example 20, Sodium 9-(acetamidomethylthio)-9-deoxyclavulanate] | 4 µg/mL | 62.5 µg/mL | 62.5 µg/mL |  |
| CC1(C)S[C@@H]2[C@H](NC(=O)[C@H](N)c3ccc(O)cc3)C(=O)N2[C@H]1C(=O)O [Amoxycillin, amoxycillin] |  |  |  | ED50 [8]: > 1000 mg/kg |
